The text below walks through data of US10613180B2, “Methods and systems of assessing tissue vascular permeability using non-labeled dextran” (priority 2014, dated 2020).

One assay concerns tumor. Nature of the assay: In vivo and ex vivo fluorescence imaging and immunohistochemistry with dextran-FITC. Details: species or system mice. The note with it: after TNF-α. The source says:
The changes of mean ROI CEST contrast of tumor and kidney are plotted on the right. […] The dextran can be also imaged by its conjugated fluorescein (FITC).

The next assay relates to CT26 colon tumors. Nature of the assay: In vivo CEST MRI of 150 kD dextran uptake before and after TNF-α. Further details: species or system mice. The note with it: TNF-α 1 μg per mouse, one hour after 150 kD dextran.

Protocol for CT26 colon tumors: For dextran of 150 kD, a slightly different protocol was used (FIG. 3a). […] One hour later, TNF-α (1 μg per mouse) was injected. The CEST MRI was acquired using a series of z spectral imaging acquisition (from −3 ppm to +3 ppm, step=0.2 ppm). Each acquisition took ˜16 minutes. For all the studies, a fat-suppressed RARE sequence with a continuous wave pre-saturation pulse B1=1.8 μT and 3 seconds (TR/TE=5000/5 ms, RARE factor=10)^2 was used. Data were processed using custom-written MATLAB scripts. After correcting for B0 inhomogeneity using the WASSR method, the in vivo CEST contrast was quantified by averaging the MTRasym=(S^−Δω−S^+Δω)/S0 from 0.8 to 1.2 ppm.^2

For the substance TNF-α, the “dextran uptake in tumors by fluorescence imaging and immunohistochemistry” value in the assay on tumor is given as “marked increased dextran uptake in tumors”. For the same substance, the “effect of TNF-α on dextran accumulation in tumor and kidney” value with CT26 colon tumors is recorded as “increased vascular permeability”.
